# Experimental data taken from publication PMC6792352, “Limited Chemical Structural Diversity Found to Modulate Thyroid Hormone Receptor in the Tox21 Chemical Library” (Environmental Health Perspectives, 2019).
# Counter-ions that a name gives are not always drawn.
# Experiment: in vitro
# Details: rat, gh3-tre-luc cells
Structure (SMILES),CC50 at 24 h (AC50 (uM) modified / 1000) [µM],also measured
COc1cc(C(=O)N2CCOCC2)cc(OC)c1OC [Trimetozine],> 50,–
CCCC(=O)C(CC)Sc1ccoc1C (centres unmarked) [3-(2-Methyl-3-furylthio)-4-heptanone],> 90,–
CC(=O)OCC(=O)[C@@]12OC3(CCCC3)O[C@@H]1C[C@H]1[C@@H]3CCC4=CC(=O)C=C[C@]4(C)[C@@]3(F)[C@@H](O)C[C@@]12C [Amcinonide],> 50,–
CCCCCCCCCCCCN1CCOCC1 [4-Dodecylmorpholine],> 90,–
COc1ccc(C[C@@H](C)NC[C@H](O)c2ccc(O)c(NC=O)c2)cc1 [Formoterol hemifumarate],> 50,–
"CC1(C)C(O)C(C)(C)C1O (centres unmarked) [2,2,4,4-Tetramethylcyclobutane-1,3-diol]",> 90,–
CN1CCN(c2c(F)cc3c(=O)c(C(=O)O)cn4c3c2SCC4)CC1 [Rufloxacin hydrochloride],> 50,–
CC(C)CCOC(=O)c1ccc(N(C)C)cc1 [Padimate],> 50,–
Cc1ccc(S(=O)(=O)NC2CCCCC2)cc1 [N-Cyclohexyl-4-methylbenzenesulfonamide],> 90,–
Nc1ccc2cc(S(=O)(=O)O)cc(O)c2c1N=Nc1ccccc1C(F)(F)F [Acid Red 337],89.3,–
c1ccc(/N=N/c2ccccc2)cc1 [Azobenzene],> 90,–
"O=S1(=O)CC(Cl)(Cl)C(Cl)(Cl)C1 [3,3,4,4-Tetrachlorotetrahydrothiophene 1,1-dioxide]",1.02,–
CCCc1ccccc1O [2-Propylphenol],> 90,–
CCN(C(=O)c1cc(C)cc(OC[C@H](C)Nc2ccncc2)c1)C(C)C [GW473178E methyl benzene sulphonic acid],> 60,–
OCC1CO1 (centres unmarked) [Glycidol],> 90,–
"CCC(=C(CC)c1ccc(O)cc1)c1ccc(O)cc1 [(Z,E)-Diethylstilbestrol]",12.2,–
CC(C)C[C@H]1C(=O)N2CCC[C@H]2[C@]2(O)O[C@](NC(=O)[C@@H]3C=C4c5cccc6[nH]c(Br)c(c56)C[C@H]4N(C)C3)(C(C)C)C(=O)N12 [Bromocriptine],> 50,–
O=C(O)c1cc(O)c2c(c1)[C@H]([C@H]1c3cc(C(=O)O)cc(O)c3C(=O)c3c(O[C@@H]4O[C@H](CO)[C@@H](O)[C@H](O)[C@H]4O)cccc31)c1cccc(O[C@@H]3O[C@H](CO)[C@@H](O)[C@H](O)[C@H]3O)c1C2=O [Sennoside A],> 50,–
CCc1ccc(O)c(C(C)(C)C)c1 [2-tert-Butyl-4-ethylphenol],62.1,–
NC1=NCC2c3ccccc3Cc3ccccc3N12 (centres unmarked) [Epinastine hydrochloride],> 50,–
NCCCC[C@H](NC(=O)[C@@H]1CCCN1C(=O)[C@@H]1CSSC[C@H](N)C(=O)N[C@@H](Cc2ccc(O)cc2)C(=O)N[C@@H](Cc2ccccc2)C(=O)N[C@@H](CCC(N)=O)C(=O)N[C@@H](CC(N)=O)C(=O)N1)C(=O)NCC(N)=O [Lypressin],> 50,–

Structure (SMILES),CC50 at 24 h (AC50 (uM) modified / 1000) [µM],also measured
CCCCCCCCOCCCN [3-(Octyloxy)propan-1-amine],11.8,–
"CC(Oc1cc(Cl)ccc1Cl)C(=O)O (stereo not drawn) [alpha-(2,5-Dichlorophenoxy)propionic acid]",> 90,–
CCc1ccc2c(c1)C(=O)c1ccccc1C2=O [2-Ethylanthraquinone],> 90,–
CCCCCCCCCCOS(=O)(=O)O [Sodium decyl sulfate],> 90,–
"CCN(CC)C(=O)c1cccnc1 [N,N-Diethylnicotinamide]",> 50,–
CCCCCCCCCCC [Undecane],> 90,–
"Nc1ccc(Cl)c(N)c1 [4-Chloro-1,3-diaminobenzene]",> 90,–
"CC(=O)c1cc(C)oc1C [3-Acetyl-2,5-dimethylfuran]",> 90,–
"CN(C)CCN(C)C [N,N,N',N'-Tetramethylethylenediamine]",–,"CC50 at 24 h (AC50 (uM) modified / 1000, Tox21_110001=Tox21_200241, viability, 1 nM T3 present, 24 h): > 90 µM"
CC(C)COC(=O)c1ccccc1O [Isobutyl salicylate],> 90,–
O=[P@]1(N(CCCl)CCCl)N[C@H](OO)CCO1 [4-Hydroperoxy cyclophosphamide],–,"CC50 at 24 h (AC50 (uM) modified / 1000, Tox21_110001=Tox21_113608, viability, 1 nM T3 present, 24 h): > 50 µM"
CC(=O)SC[C@@H](C)C(=O)N1CCC[C@H]1C(=O)N[C@@H](Cc1ccccc1)C(=O)O [Alacepril],> 50,–
O=C(O)c1cc(N=Nc2ccc([N+](=O)[O-])cc2)ccc1O [Alizarin Yellow R],58,–
CCCCC1CCC(=O)O1 (centres unmarked) [4-Octanolide],> 90,–
c1ccsc1 [Thiophene],> 90,–
CC(=O)/C=C/c1ccccc1 [Methyl trans-styryl ketone],–,"CC50 at 24 h (AC50 (uM) modified / 1000, Tox21_110001=Tox21_301598, viability, 1 nM T3 present, 24 h): > 90 µM"
NC(=O)[C@@H]1C[C@]2(NC(=O)NC2=O)c2cc(F)ccc2O1 [Fidarestat],> 50,–
CN1C(=O)CC(c2ccccc2)C1=O (centres unmarked) [Phensuximide],> 50,–
"Oc1nc(Cl)c(Cl)cc1Cl [3,5,6-Trichloro-2-pyridinol]",> 90,–
CC(=O)CC(=O)c1ccccc1 [1-Benzoylacetone],> 90,–
COc1ccc(/C=C/C(=O)OCCC(C)C)cc1 [Amiloxate],> 50,–

Structure (SMILES),CC50 at 24 h (AC50 (uM) modified / 1000) [µM],also measured
O=C(O)c1cc(C(=O)O)c(C(=O)O)cc1C(=O)O [Pyromellitic acid],> 90,–
"N#Cc1ccccc1C#N [1,2-Benzenedicarbonitrile]",> 70,–
CC(=O)/C(C)=C/C1C(C)=CCCC1(C)C (stereo not drawn) [alpha-Isomethylionone],> 90,–
NCCc1cc[nH]n1 [Betazole hydrochloride],> 20,–
O=C1c2ccccc2C(=O)C1C(=O)C(c1ccccc1)c1ccccc1 [Diphacinone],–,"CC50 at 24 h (AC50 (uM) modified / 1000, Tox21_110001=Tox21_111893, viability, 1 nM T3 present, 24 h): > 50 µM"
Cn1c(=O)c2c(ncn2CCOC(=O)C(C)(C)Oc2ccc(Cl)cc2)n(C)c1=O [Etofylline clofibrate],> 50,–
O=C1CC2CC1C1CCCC21 (centres unmarked) [Corodane],> 90,–
O=C(NCN1CCOCC1)c1cnccn1 [Morphazinamide],> 50,–
c1ccc(Oc2ccccc2)cc1 [Diphenyl oxide],> 90,–
COc1cc2nc(N3CCN(C(=O)C4CCCO4)CC3)nc(N)c2cc1OC (centres unmarked) [Terazosin hydrochloride],> 50,–
"Cc1ccc(N(C)C)cc1 [N,N,4-Trimethylaniline]",> 90,–
CC(=O)N[C@@H]1[C@@H](O)[C@H](O)[C@@H](CO)O[C@H]1O [N-Acetylglucosamine],> 50,–
"Cc1cc(C)c(N)cc1C [2,4,5-Trimethylaniline]",> 90,–
CCCCCc1ccc(N)cc1 [4-Pentylaniline],> 90,–
Cc1ccccc1CO[C@@H]1C[C@@]2(C(C)C)CC[C@]1(C)O2 (racemic) [Cinmethylin],> 90,–
CCOc1ccc(NS(=O)(=O)c2ccc(N)cc2)nn1 [Sulfaethoxypyridazine],> 50,–
"COc1cc(OC)cc(OC)c1 [1,3,5-Trimethoxybenzene]",> 50,–
CNC(=O)/C=C(\C)OP(=O)(OC)OC [Monocrotophos],–,"CC50 at 24 h (AC50 (uM) modified / 1000, Tox21_110001=Tox21_300806, viability, 1 nM T3 present, 24 h): > 90 µM"
O=S(=O)(O)c1ccc2cc(O)ccc2c1 [Potassium 6-hydroxynaphthalene-2-sulfonate],> 90,–
CCN(CC)CC(=O)Nc1c(C)cc(C)cc1C [Trimecaine monohydrochloride],> 50,–
Cc1cc(N)c2ccccc2[n+]1CCCCCCCCCC[n+]1c(C)cc(N)c2ccccc21 [Dequalinium dichloride],12.4,–

Structure (SMILES),CC50 at 24 h (AC50 (uM) modified / 1000) [µM],also measured
Cc1cc(C(C)(C)C)c(O)c(C)c1CC1=NCCN1 [Oxymetazoline],> 50,–
CCNC1(c2cccs2)CCCCC1=O (centres unmarked) [Tiletamine hydrochloride],> 20,–
CCN(CC)C(=O)c1cccc(C)c1 [DEET],> 90,–
C=C1C(=O)O[C@H]2[C@H]1CC/C(C)=C/CC[C@@]1(C)O[C@@H]21 [Parthenolide],13.8,–
O=C(O)CN(CCN(CC(=O)O)CC(=O)O)CCN(CC(=O)O)CC(=O)O [Pentetic acid],25,–
CC(C)[C@@H]1CC[C@@H](C)C[C@H]1O [Menthol],> 90,–
Nc1cc(Cl)cc(C(=O)O)c1Cl [Chloramben],> 90,–
CCCCOCCOCCOCCCC [Diethylene glycol dibutyl ether],> 90,–
CCCCCCCCCCCO [1-Undecanol],> 90,–
CC(Cc1ccccc1)NC=O (centres unmarked) [Formetorex],–,"CC50 at 24 h (AC50 (uM) modified / 1000, Tox21_110001=Tox21_111794, viability, 1 nM T3 present, 24 h): > 50 µM"
"Nc1ncnc2c1ncn2[C@H]1CC[C@@H](CO)O1 [2',3'-Dideoxyadenosine]",> 90,–
CCOC(=O)Nc1cccc(OC(=O)Nc2ccccc2)c1 [Desmedipham],–,"CC50 at 24 h (AC50 (uM) modified / 1000, Tox21_110001=Tox21_301854, viability, 1 nM T3 present, 24 h): > 90 µM"
CC(=O)CC/C=C(\C)CC/C=C(\C)CC/C=C(\C)CCC=C(C)C [Teprenone],> 50,–
O[C@@H](CNC[C@H](O)[C@H]1CCc2cc(F)ccc2O1)[C@@H]1CCc2cc(F)ccc2O1 (racemic) [rac Nebivolol hydrochloride],7.99,–
"O=S(=O)(c1ccc(O)cc1)c1ccc(O)cc1 [4,4'-Sulfonyldiphenol]",> 90,–
CCCCCCOC(=O)CC [Hexyl propanoate],> 90,–
CC(Cc1cccc(C(F)(F)F)c1)NCCOC(=O)c1ccccc1 (centres unmarked) [Benfluorex hydrochloride],27.3,–
Oc1ccc(C2CNCCc3c2cc(O)c(O)c3Cl)cc1 (centres unmarked) [Fenoldopam],> 50,–
CCN(CC)CCOC(=O)[C@H](Cc1cccc2ccccc12)C[C@H]1CCCO1 [Nafronyl oxalate],> 20,–
O=C(CCCCC(=O)Nc1c(I)cc(I)c(C(=O)O)c1I)Nc1c(I)cc(I)c(C(=O)O)c1I [Iodipamide],> 50,–
